Assay results from US8278069B2, “Identification of a β-1,3-N-acetylgalactosaminyltransferase (CGTE) from Campylobacter jejuni LIO87” (National Research Council of Canada, priority 2005, dated 2012).

What was measured:
CgtE = assay: Characterization of CgtE enzymatic activity (pH, divalent cations, truncation); assay type: biochemical, Campylobacter jejuni LIO87; settings: divalent cations necessary for activity
From the text: CgtE enzymatic activity was characterized further. CgtE activity was optimal from pH 7 to 7.5.

CgtE (CJL-107) = assay: Substrate specificity of CgtE (CJL-107), acceptor and donor substrates; assay type: biochemical, Campylobacter jejuni LIO87; settings: for Activity: enzyme CgtE (CJL-107)
Chain of CgtE (CJL-107) (as listed by the source): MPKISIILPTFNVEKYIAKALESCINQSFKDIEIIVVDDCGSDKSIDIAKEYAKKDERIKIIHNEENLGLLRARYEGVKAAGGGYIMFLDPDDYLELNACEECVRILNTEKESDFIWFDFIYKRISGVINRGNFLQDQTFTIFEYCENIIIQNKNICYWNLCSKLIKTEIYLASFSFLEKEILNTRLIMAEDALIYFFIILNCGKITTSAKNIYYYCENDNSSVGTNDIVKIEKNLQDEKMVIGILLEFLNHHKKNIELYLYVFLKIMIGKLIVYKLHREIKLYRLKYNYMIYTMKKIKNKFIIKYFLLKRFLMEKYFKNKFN
From the text: A nucleic acid encoding a CgtE polypeptide, or a subsequence thereof, can be characterized by assaying for the expressed product. Assays based on the detection of the physical, chemical, or immunological properties of the expressed protein can be used. For example, one can identify a cloned CgtE nucleic acid B, by the ability of a protein encoded by the nucleic acid to catalyze the transfer of a galactose moiety from a donor substrate to an acceptor substrate. In one method, capillary electrophoresis is employed to detect the reaction products. This highly sensitive assay involves using either saccharide or disaccharide aminophenyl derivatives which are labeled with fluorescein as described in Wakarchuk et al. (1996) J. Biol. Chem. 271 (45): 28271-276. To assay for CgtE activity, Galα-Lac-FCHASE or GalNAc-α-FCHASE is used as a substrate. The reaction products of other glycosyltransferases can be detected using capillary electrophoresis, e.g., to assay for a Neisseria lgtC enzyme, either FCHASE-AP-Lac or FCHASE-AP-Gal can be used, whereas for the Neisseria lgtB enzyme an appropriate reagent is FCHASE-AP-GlcNAc (Wakarchuk, supra). To assay for α2,8-sialyltransferase, GM3-FCHASE is used as a substrate. See, e.g., U.S. Pat. No. 6,503,744, which is herein incorporated by reference. Other methods for detection of oligosaccharide reaction products include thin layer chromatography and GC/MS and are disclosed in U.S. Pat. No. 6,503,744, which is herein incorporated by reference.
CgtE used both Galα-Lac-FCHASE and GalNAc-α-FCHASE as acceptor substrate. CgtE enzymatic activity was higher when Galα-Lac-FCHASE was used as the acceptor substrate.

Compound | CgtE activity with divalent cation relative to MgCl2 (CgtE) | Activity (CgtE (CJL-107); donor UDP-Gal) [mU/mL] | Activity (CgtE (CJL-107); donor UDP-GalNAc) [mU/mL] | CgtE enzymatic activity, comparison of acceptor substrates (CgtE (CJL-107); Galα-Lac-FCHASE versus GalNAc-α-FCHASE as acceptor)
[Cl][Mn][Cl] [MnCl2] | two-fold higher | – | – | –
GalNAc-α-FCHASE | – | 0.6 | 0.3 | –
Galα-Lac-FCHASE | – | 7.0 | 63.5 | higher
